The record followed here is ChEMBL document CHEMBL1201862, “PubChem BioAssay data set” (2004).

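These data come from cells grown in 96-well plates and exposed to compound for 48 hours at five concentrations. GI50 is the concentration that inhibits growth by half.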 Calls of active or inactive are those of the source. Cut-off read from the data, not from the text of the source: active = GI50 up to about 1.1 µM and inactive = higher. Some results are limits rather than exact numbers.

Some test systems named below: OVCAR-3; OVCAR-4; IGROV-1; HCC 2998; T47D; SK-MEL-2; UO-31; Malme-3M; MDA-MB-231; SF-539; RXF 393; LOX IMVI; M14; U-251; A498; HOP-92; UACC-257; SR; NCI-H460; HCT-116.
What all share (assay): NCI-60 cell line screen, 48 h

Consider `CCCCCCCC(=O)O[C@H]1[C@H]2[C@@H](CC1(C)C)C(=O)[C@]13O[C@H]1C(=O)[C@]1(CO1)[C@]23C`, for which the GI50 is 2.91 µM (inactive) in the assay on OVCAR-3; 4.46 µM (inactive) in the assay on OVCAR-4; 4.4 µM (inactive) in the assay on IGROV-1; 5.96 µM (inactive) in the assay on HCC 2998; 1.05 µM (active) with T47D; 3.7 µM (inactive) in the assay with SK-MEL-2. The GI50 in the assay on UO-31 is 14.3 µM (inactive); with Malme-3M, 3.29 µM (inactive); with MDA-MB-231 it was 25.5 µM (inactive); in the assay with SF-539 it was 6.84 µM (inactive); in the assay with RXF 393, 2.22 µM (inactive); in the assay with LOX IMVI, 1.34 µM (inactive). The GI50 in the assay on M14 was 3.92 µM (inactive); in the assay with U-251 it was 7.83 µM (inactive); in the assay on A498, 9.16 µM (inactive); with HOP-92, 1.97 µM (inactive); in the assay with UACC-257 it was 2.85 µM (inactive); in the assay on SR, 2.07 µM (inactive). The GI50 with NCI-H460 is 5.71 µM (inactive).

Consider `CC(=O)O[C@H]1C#C/C=C\C#CC[C@@H]2C(=O)N(C(=O)OC(C)(C)C)[C@@H]12`, for which the GI50 in the assay with OVCAR-3 is 41.1 µM (inactive); with OVCAR-4, > 100 µM (inactive); in the assay on IGROV-1, 3.45 µM (inactive); with HCC 2998, 19.5 µM (inactive); with T47D, 32.7 µM (inactive); with SK-MEL-2, 41.2 µM (inactive). Moreover, the GI50 was 2.91 µM (inactive) in the assay with UO-31; 7.87 µM (inactive) with Malme-3M; 55.3 µM (inactive) in the assay with MDA-MB-231; 1.67 µM (inactive) in the assay with SF-539; 15.4 µM (inactive) in the assay on RXF 393; 13.1 µM (inactive) in the assay on LOX IMVI. For the same compound, the GI50 with M14 was 28.3 µM (inactive); in the assay with HCT-116, 17.4 µM (inactive); with U-251 it was 17.7 µM (inactive); with A498 it was 33.4 µM (inactive); in the assay with HOP-92 it was 26.9 µM (inactive); in the assay on UACC-257, 28.4 µM (inactive). Besides, the GI50 with SR was 24 µM (inactive); in the assay with NCI-H460, 0.25 µM (active).

Turning to `Cn1c2ccc(F)cc2c2ccc3c(c21)C(=O)C=CC3=O`, the GI50 is 7.21 µM (inactive) with OVCAR-3; 5.14 µM (inactive) with OVCAR-4; 14.6 µM (inactive) in the assay on IGROV-1; 26.9 µM (inactive) with HCC 2998; 2.77 µM (inactive) in the assay with T47D; 23.1 µM (inactive) in the assay on SK-MEL-2. Moreover, the GI50 in the assay on UO-31 was 7.52 µM (inactive); in the assay on Malme-3M, 8.71 µM (inactive); with MDA-MB-231, 4.09 µM (inactive); in the assay with SF-539 it was 16.6 µM (inactive); in the assay on RXF 393, 3.28 µM (inactive); with LOX IMVI, 6.17 µM (inactive). The GI50 was 12.1 µM (inactive) in the assay on M14; 6.73 µM (inactive) in the assay with HCT-116; 14.3 µM (inactive) in the assay on U-251; 55.7 µM (inactive) with A498; 6.22 µM (inactive) in the assay on HOP-92; 9.86 µM (inactive) with UACC-257. Also, the GI50 was 1.56 µM (inactive) in the assay on SR and > 57.3 µM (inactive) in the assay with NCI-H460.

For `COC12c3ccccc3-c3ccccc3C1[C@H]1C(=O)OC(=O)[C@H]12` (stereo partly drawn), the GI50 in the assay on OVCAR-3, in the assay with OVCAR-4, in the assay on IGROV-1, with HCC 2998, with T47D and with SK-MEL-2 was > 10 µM (inactive) throughout. For the same compound, the GI50 in the assay on UO-31, with Malme-3M, in the assay on MDA-MB-231, with SF-539, in the assay on RXF 393 and in the assay with LOX IMVI was > 10 µM (inactive) in each case. Moreover, the GI50 with M14, with U-251, in the assay with A498, in the assay with HOP-92, with UACC-257 and with SR was > 10 µM (inactive) throughout. Also, in the assay on NCI-H460, the GI50 is > 10 µM (inactive).
